Assay results as given in patent US5789595A, “Tetrahydroisoquinoline derivative and medical preparation containing the same” (Terumo Kabushiki Kaisha, priority 1994, dated 1998).
Counter-ions that a name gives are not always drawn.

Key:
Format in all cases: cell-based
human platelet [1] = assay: ADP-induced aggregation of human platelets (platelet-rich plasma), inhibition; conditions: human PRP, 20 to 30×1e4 platelets/μl, 37° C., read-out: Inhibitory action for agglutination by ADP IC50
Method: Inhibity effects on human platelet of the invention derivatives to evaluate the activity for inhibiting aggregation induced by ADP (adenosine diphosphate), thrombin, and fibrinogen were measured in accordance with the procedure as described below. (1) Preparation of platelet-rich plasma, washed platelets, and α-chymotrypsin-treated platelets Human whole blood withdrawn from human elbow vein into 10% volume of 3.8% sodium citrate was centrifuged at 135×g (1100 rpm) for 10 minutes, and the supernatant was collected as platelet-rich plasma (PRP). The residue was further centrifuged at 1600×g (3000 rpm) for 10 minutes, and the supernatant was collected as platelet-poor plasma (PPP). PRP and PPP were used for the measurement of the aggregation induced by ADP. In the meanwhile, PRP was applied to Sepharose CL-2B column (manufacture by Pharmacia) equilibrated with HEPES buffer, pH 7.4 containing 0.5% BSA and 5.5 mM glucose, and the fractions eluted in the void volume were collected as platelet-suspension, and used for the measurement of the aggregation induced by thrombin. In addition, washed platelet were treated with α-chymotrypsin of the final concentration of 10 U/ml for 30 minutes at room temperature. Then, the protease reaction was stopped by the addition of trypsin-chymotrypsin inhibitor (0.5 mg/ml), and α-chymotrypsin-treated platelet-suspension was used for the aggregation induced by fibrinogen. (2) Measurement of ADP-induced aggregation PRP was diluted with PPP to adjust the number of platelets to 20 to 30×1e4/μl, and the aggregation induced by ADP was measured with aggligometer (HEMATRACER VI, manufactured by NBS). 0.2 ml of PRP was placed in the cubette of the aggligometer with 25 μl of the test solution or physiological saline (control), and was incubated at 37° C. for 5 minutes with stirring (1000 rpm). Then, 25 μl of ADP solution was added and the time course of the light transmittance was recorded. The transmittance of PRP and PPP were calibrated as 0 and 100% respectively, and the maximum transmittance after adding the agonist was taken for the maximum aggregation. The concentration of 50% inhibition (IC50) was calculated from the proportion of the maximum aggregation with test solution to physiological saline.

human platelet [2] = assay: Thrombin-induced aggregation of human platelets (washed platelet suspension), inhibition; conditions: HEPES buffer pH 7.4, 2 mM CaCl2 and MgCl2, read-out: Inhibitory action for agglutination by thrombin IC50
Method: (§1) Inhibity effects on human platelet of the invention derivatives to evaluate the activity for inhibiting aggregation induced by ADP (adenosine diphosphate), thrombin, and fibrinogen were measured in accordance with the procedure as described below.
(§2) (1) Preparation of platelet-rich plasma, washed platelets, and α-chymotrypsin-treated platelets
(§3) Human whole blood withdrawn from human elbow vein into 10% volume of 3.8% sodium citrate was centrifuged at 135×g (1100 rpm) for 10 minutes, and the supernatant was collected as platelet-rich plasma (PRP). The residue was further centrifuged at 1600×g (3000 rpm) for 10 minutes, and the supernatant was collected as platelet-poor plasma (PPP). PRP and PPP were used for the measurement of the aggregation induced by ADP. In the meanwhile, PRP was applied to Sepharose CL-2B column (manufacture by Pharmacia) equilibrated with HEPES buffer, pH 7.4 containing 0.5% BSA and 5.5 mM glucose, and the fractions eluted in the void volume were collected as platelet-suspension, and used for the measurement of the aggregation induced by thrombin. In addition, washed platelet were treated with α-chymotrypsin of the final concentration of 10 U/ml for 30 minutes at room temperature. Then, the protease reaction was stopped by the addition of trypsin-chymotrypsin inhibitor (0.5 mg/ml), and α-chymotrypsin-treated platelet-suspension was used for the aggregation induced by fibrinogen.
(3) Measurement of thrombin-induced aggregation
The platelet-suspension was diluted with HEPES buffer, pH 7.4 to adjust the number of platelets to 20 to 30×1e4/μl, and calcium chloride and magnesium chloride were respectively added to 2 mM (final concentration). The aggregation induced by thrombin was measured with this platelet-suspension and HEPES buffer (contrast) by the same procedure as the measurement of the aggregation induced by the ADP. The concentration of 50% inhibition (IC50) was calculated from the proportion of the maximum aggregation with test solution to physiological saline.

human platelet [3] = assay: Fibrinogen-induced aggregation of α-chymotrypsin-treated human platelets, inhibition; conditions: fibrinogen (0.4 mg/ml), HEPES buffer pH 7.4, PGE1 1 μM, read-out: Inhibitory action for agglutination by fibrinogen IC50
Method: as §1, §2
as §3, with “In addition, washed platelet were treated with α-chymotrypsin of the final concentration of 10 U/ml for 30 minutes at room temperature. Then, the protease reaction was stopped by the addition of trypsin-chymotrypsin inhibitor (0.5 mg/ml), and α-chymotrypsin-treated platelet-suspension was used for the aggregation induced by fibrinogen.” left out
α-chymotrypsin-treated platelet-suspension was diluted with HEPES buffer, pH 7.4 to adjust the number of platelets to 20 to 30×1e4/μl. […] The aggregation induced by fibrinogen (0.4 mg/ml) was measured with this platelet-suspension and the HEPES buffer (contrast). […]

For `CC(CC(=O)O)N1CCc2ccc(NC(=O)COC3CCNCC3)cc2C1` (centres unmarked) [Ex. 9, 7-(piperidine-4-yloxyacetylamino)-2-(2-carboxy-1-methylethyl)-1,2,3,4-tetrahydroisoquinoline], the IC50 (human platelet [1]) was 0.32 µM.

Work on `CC1CNCCC1OCC(=O)Nc1ccc2c(c1)CN(CCC(=O)O)CC2` (centres unmarked) [Ex. 8, 7-(3-methylpiperidine-4-yloxyacetylamino)-2-(2-carboxyethyl)-1,2,3,4-tetrahydroisoquinoline] yielded an IC50 (human platelet [1]) of 0.23 µM.

Work on `O=C(O)CCN1CCc2ccc(NC(=O)COC3CCNCC3)cc2C1c1ccccc1` (centres unmarked) [Ex. 6, 2-(carbonylethyl)-1-phenyl-7-(piperidine-4-yloxyacetylamino)-1,2,3,4-tetrahydroisoquinoline] yielded an IC50 (human platelet [2]) of 1.9 µM and an IC50 (human platelet [1]) of 2.9 µM.

For `O=C(O)CCN1CCc2ccc(NC(=O)COC3CCNCC3)cc2C1` [Ex. 2, 7-(piperidine-4-yloxyacetylamino)-2-carboxyethyl-1,2,3,4-tetrahydroisoquinoline], the IC50 (human platelet [3]) was 0.038 µM, the IC50 (human platelet [2]) was 0.066 µM and the IC50 (human platelet [1]) was 0.097 µM.

With `CC1(C)Cc2ccc(NC(=O)COC3CCNCC3)cc2CN1CCC(=O)O` [Ex. 12, 2-(2-carboxyethyl)-3,3-dimethyl-7-(piperidine-4-yloxyacetylamino)-1,2,3,4-tetrahydroisoquinoline hydrochloride] the IC50 (human platelet [1]) was 12 µM.

Work on `CC1CN(CCC(=O)O)Cc2cc(NC(=O)COC3CCNCC3)ccc21` (centres unmarked) [Ex. 11, 2-(2-carboxyethyl)-4-methyl-7-(piperidine-4-yloxyacetylamino)-1,2,3,4-tetrahydroisoquinoline hydrochloride] yielded an IC50 (human platelet [1]) of 0.15 µM.

`CN(C(=O)COC1CCNCC1)c1ccc2c(c1)CN(CCC(=O)O)CC2` [Ex. 5, 7-[(piperidine-4-yloxyacetyl)methylamino]-2-[2-(carboxy)ethyl]-1,2,3,4-tetrahydroisoquinoline] gave an IC50 (human platelet [2]) of 43 µM and an IC50 (human platelet [1]) of 81 µM.

For `O=C(O)CN1CCc2ccc(NC(=O)COC3CCNCC3)cc2C1` [Ex. 1, 7-(piperidine-4-yloxyacetylamino)-2-carboxymethyl-1,2,3,4-tetrahydroisoquinoline], the IC50 (human platelet [2]) was 4.8 µM and the IC50 (human platelet [1]) was 5 µM.

Work on `O=C(O)CCCN1CCc2ccc(NC(=O)COC3CCNCC3)cc2C1` [Ex. 3, 7-(piperidine-4-yloxyacetylamino)-2-(3-carboxypropyl)-1,2,3,4-tetrahydroisoquinoline] yielded an IC50 (human platelet [2]) greater than 10 µM and an IC50 (human platelet [1]) greater than 10 µM.

In the case of `CC1c2cc(NC(=O)COC3CCNCC3)ccc2CCN1CCC(=O)O` (centres unmarked) [Ex. 10, 2-(2-carboxyethyl)-1-methyl-7-(piperidine-4-yloxyacetylamino)-1,2,3,4-tetrahydroisoquinoline hydrochloride], the IC50 (human platelet [1]) is reported as 0.38 µM.

Compound `CC1CC(OCC(=O)Nc2ccc3c(c2)CN(CCC(=O)O)CC3)CC(C)N1` (centres unmarked) [Ex. 7, 7-(2,6-dimethylpiperidine-4-yloxyacetylamino)-2-(2-carboxyethyl)-1,2,3,4-tetrahydroisoquinoline] has an IC50 (human platelet [1]) greater than 10 µM.
